The values that follow come from PMC8286840, “Identifying SARS-CoV-2 antiviral compounds by screening for small molecule inhibitors of Nsp3 papain-like protease” (Biochemical Journal, 2021).

Structures can show the parent of a compound that is named as a salt. Where two headings read alike, the source gives them in different places.

Experiment [1] deals with T1, SARS-CoV-2 PLpro (nsp3 1564–1878) (Severe acute respiratory syndrome coronavirus 2, UniProt P0DTD1). Briefly: biochemical. On the set-up: FRET-quenched peptide (Pro3) cleavage by PLpro, 10 min pre-incubation, slope over 20 min, normalised to no-compound control. Particulars: read-out: % of control remaining.
Experiment [2] addresses T1, SARS-CoV-2 PLpro (nsp3 1564–1878). Briefly: biochemical. On the set-up: FRET-quenched peptide (Pro3) cleavage by PLpro, 10 min pre-incubation, slope over 20 min, normalised to no-compound control. The settings on record: read-out: % of control remaining. This is another data set of the same source.

`O=C1Cc2c([nH]c3ccc(Br)cc23)-c2ccccc2N1` [Kenpaullone]: the remaining activity at 1.25 µM in experiment [1] (Well no.=783, low concentration screen) was found to be 102%; in experiment [1] (Well no.=2554, low concentration screen), 104%. In addition, the remaining activity at 3.75 µM was determined as 102% in experiment [2] (Well no.=783, high concentration screen) and 100% in experiment [2] (Well no.=2554, high concentration screen).

Regarding `CO[C@]12C[C@@H](COC(=O)c3cncc(Br)c3)CN(C)[C@@H]1Cc1cn(C)c3cccc2c13` [Nicergoline], the remaining activity at 1.25 µM in experiment [1] (Well no.=1731, low concentration screen) came out at 99.4%; in experiment [1] (Well no.=6958, low concentration screen) it was 102%. Further, the remaining activity at 3.75 µM is 102% in experiment [2] (Well no.=1731, high concentration screen) and 109% in experiment [2] (Well no.=6958, high concentration screen).

In the case of `N#C[C@H]1[C@H](O)[C@@H](CO)O[C@H]1n1ccc(N)nc1=O` [CNDAC (hydrochloride)], in experiment [1] (Well no.=7866, low concentration screen), the remaining activity at 1.25 µM came out at 91.6%. The remaining activity at 3.75 µM in experiment [2] (Well no.=7866, high concentration screen) was 94.8%.

Consider `C[C@H]1c2cccc(O)c2C(=O)C2=C(O)[C@]3(O)C(=O)C(C(N)=O)=C(O)[C@@H](N(C)C)[C@@H]3[C@@H](O)[C@@H]21` [Doxycycline], for which the remaining activity at 1.25 µM in experiment [1] (Well no.=2022, low concentration screen) was determined as 106%. The remaining activity at 3.75 µM in experiment [2] (Well no.=2022, high concentration screen) was determined as 107%.

For the molecule `O=C(O)c1c(O)cccc1O` [2,6-Dihydroxybenzoic acid], the remaining activity at 1.25 µM in experiment [1] (Well no.=6921, low concentration screen) was 108%. Also, in experiment [2] (Well no.=6921, high concentration screen), the remaining activity at 3.75 µM was 105%.

As to `CC[C@@]1([C@@H]2O[C@@H]([C@H]3O[C@@](O)(CO)[C@H](C)C[C@@H]3C)C[C@@H]2C)CC[C@H]([C@]2(C)CC[C@]3(C[C@H](O)[C@@H](C)[C@@H]([C@@H](C)[C@@H](OC)[C@H](C)C(=O)O)O3)O2)O1` [Monensin], the remaining activity at 1.25 µM in experiment [1] (Well no.=3413, low concentration screen) stood at 94.8%. In addition, in experiment [2] (Well no.=3413, high concentration screen), the remaining activity at 3.75 µM worked out at 99.5%.

Consider `N[C@H](CC(=O)O)C(=O)O` [(-)-Aspartic acid], for which the remaining activity at 1.25 µM in experiment [1] (Well no.=7063, low concentration screen) amounted to 103%. Also, the remaining activity at 3.75 µM in experiment [2] (Well no.=7063, high concentration screen) is 102%.

On to `Oc1ccc2c3c1O[C@H]1c4oc5ccccc5c4C[C@@]4(O)[C@@H](C2)N(CC2CC2)CC[C@]314` [Naltriben methanesulfonate hydrate], for which the remaining activity at 1.25 µM in experiment [1] (Well no.=1698, low concentration screen) stood at 95.8%. In addition, the remaining activity at 3.75 µM in experiment [2] (Well no.=1698, high concentration screen) is 95.9%.

Regarding `O=C1c2cccc3c2[C@H](CCC3)CN1[C@@H]1CN2CCC1CC2` [Palonosetron (Hydrochloride)], in experiment [1] (Well no.=6614, low concentration screen), the remaining activity at 1.25 µM was determined as 98.5%. Also, the remaining activity at 3.75 µM in experiment [2] (Well no.=6614, high concentration screen) is 98%.

As to `C[C@@H]1O[C@@H](Oc2c(-c3ccc(O)c(O)c3)oc3cc(O)cc(O)c3c2=O)[C@H](O)[C@H](O)[C@H]1O` [Quercitrin], the remaining activity at 1.25 µM in experiment [1] (Well no.=3112, low concentration screen) turned out to be 96.4%. In addition, the remaining activity at 3.75 µM in experiment [2] (Well no.=3112, high concentration screen) turned out to be 96.5%.

Regarding `CC(C)c1nc(CN(C)C(=O)N[C@@H](CCN2CCOCC2)C(=O)N[C@H](CC[C@H](Cc2ccccc2)NC(=O)OCc2cncs2)Cc2ccccc2)cs1` [Cobicistat (GS-9350)], the remaining activity at 1.25 µM in experiment [1] (Well no.=5213, low concentration screen) was 102%. Moreover, in experiment [2] (Well no.=5213, high concentration screen), the remaining activity at 3.75 µM amounted to 102%.

In the case of `COC1(C2=NCCN2)COc2ccccc2O1` (stereo not drawn) [RX 821002 hydrochloride], the remaining activity at 1.25 µM in experiment [1] (Well no.=1208, low concentration screen) is 100%. Moreover, the remaining activity at 3.75 µM in experiment [2] (Well no.=1208, high concentration screen) was 98.7%.

`CCCCC[C@H](O)/C=C/[C@H]1[C@H](O)CC(=O)[C@@H]1C/C=C\CCCC(=O)O` [Prostaglandin E2]: the remaining activity at 1.25 µM stood at 100% in experiment [1] (Well no.=1625, low concentration screen); 98.6% in experiment [1] (Well no.=3092, low concentration screen); 99.7% in experiment [1] (Well no.=4477, low concentration screen); 106% in experiment [1] (Well no.=6151, low concentration screen); 94.3% in experiment [1] (Well no.=8105, low concentration screen). The remaining activity at 3.75 µM in experiment [2] (Well no.=1625, high concentration screen) was found to be 103%; in experiment [2] (Well no.=3092, high concentration screen), 101%; in experiment [2] (Well no.=6151, high concentration screen), 110%; in experiment [2] (Well no.=8105, high concentration screen) it was 95.4%.

As to `CN1CC[C@@]2(C)c3cc(O)ccc3N(C)[C@@H]12` [(-)-Eseroline fumarate], in experiment [1] (Well no.=751, low concentration screen), the remaining activity at 1.25 µM was determined as 96.8%. Also, in experiment [2] (Well no.=751, high concentration screen), the remaining activity at 3.75 µM worked out at 93.5%.

In the case of `CCc1c(C(=O)OC)ncc2[nH]c3cc(OC)c(OC)cc3c12` [Methyl 6,7-dimethoxy-4-ethyl-beta-carboline-3-carboxylate], in experiment [1] (Well no.=703, low concentration screen), the remaining activity at 1.25 µM was determined as 97.5%. Besides, in experiment [2] (Well no.=703, high concentration screen), the remaining activity at 3.75 µM is 95.4%.

Turning to `C[C@H](CCC(=O)O)[C@H]1CC[C@H]2[C@@H]3[C@H](O)C[C@@H]4C[C@H](O)CC[C@]4(C)[C@H]3C[C@H](O)[C@]12C` [Cholic acid], the remaining activity at 1.25 µM in experiment [1] (Well no.=6201, low concentration screen) amounted to 105%; in experiment [1] (Well no.=8202, low concentration screen), 96.6%. In addition, the remaining activity at 3.75 µM amounted to 105% in experiment [2] (Well no.=6201, high concentration screen) and 94.8% in experiment [2] (Well no.=8202, high concentration screen).

`Clc1ccc(C(c2ccc(Cl)cc2)[n+]2ccn(CC(OCc3ccc(Cl)cc3Cl)c3ccc(Cl)cc3Cl)c2)cc1` (stereo not drawn) [Calmidazolium chloride]: the remaining activity at 1.25 µM in experiment [1] (Well no.=174, low concentration screen) stood at 101%. Moreover, in experiment [2] (Well no.=174, high concentration screen), the remaining activity at 3.75 µM was found to be 94.5%.

For `O=c1cc(-c2ccccc2)[nH]c2nc(Cl)ccc12` [7-Chloro-4-hydroxy-2-phenyl-1,8-naphthyridine], the remaining activity at 1.25 µM in experiment [1] (Well no.=324, low concentration screen) stood at 98.8%. In experiment [2] (Well no.=324, high concentration screen), the remaining activity at 3.75 µM stood at 99.1%.

As to `CC(=O)Oc1cc(C(C)C)c(OCCN(C)C)cc1C` [Moxisylyte (hydrochloride)], the remaining activity at 1.25 µM in experiment [1] (Well no.=7424, low concentration screen) was determined as 94%. The remaining activity at 3.75 µM in experiment [2] (Well no.=7424, high concentration screen) is 97.7%.

Regarding `CN1CCC[C@H]1c1cccnc1` [(-)-Nicotine], the remaining activity at 1.25 µM in experiment [1] (Well no.=3328, low concentration screen) was 96.5%. In experiment [2] (Well no.=3328, high concentration screen), the remaining activity at 3.75 µM stood at 99.2%.

Regarding `CN1CCN(C2=Nc3ccccc3Oc3ccc(Cl)cc32)CC1` [Loxapine (succinate)], the remaining activity at 1.25 µM in experiment [1] (Well no.=6172, low concentration screen) was 93.4%. In experiment [2] (Well no.=6172, high concentration screen), the remaining activity at 3.75 µM is 87.5%.

Regarding `O=C1NCC2(CCN(CCc3ccccc3)CC2)O1` [Fenspiride hydrochloride], in experiment [1] (Well no.=469, low concentration screen), the remaining activity at 1.25 µM is 99.1%. Further, in experiment [2] (Well no.=469, high concentration screen), the remaining activity at 3.75 µM came out at 103%.

For `COc1cc2c(c(OC)c1OC)-c1c(cc(OC)c(OC)c1OC)C[C@](C)(O)[C@@H](C)C2` [Schisandrin], the remaining activity at 1.25 µM in experiment [1] (Well no.=5408, low concentration screen) was 95.6%. In addition, in experiment [2] (Well no.=5408, high concentration screen), the remaining activity at 3.75 µM is 101%.

In the case of `Nc1nc(=O)n([C@@H]2CS[C@H](CO)O2)cc1F` [Emtricitabine], the remaining activity at 1.25 µM in experiment [1] (Well no.=1733, low concentration screen) came out at 100%. For the same molecule, the remaining activity at 3.75 µM in experiment [2] (Well no.=1733, high concentration screen) is 100%.

Take `CN(C)Cc1c[nH]c2ccccc12` [Gramine]: the remaining activity at 1.25 µM in experiment [1] (Well no.=3284, low concentration screen) is 97.9%. Also, the remaining activity at 3.75 µM in experiment [2] (Well no.=3284, high concentration screen) worked out at 99.5%.

In the case of `COc1c(N2C[C@@H]3CCCN[C@@H]3C2)c(F)cc2c(=O)c(C(=O)O)cn(C3CC3)c12` [Moxifloxacin.HCl], the remaining activity at 1.25 µM in experiment [1] (Well no.=1568, low concentration screen) was 97.8%. In addition, in experiment [2] (Well no.=1568, high concentration screen), the remaining activity at 3.75 µM worked out at 96.5%.

With `C[S+]([O-])CCCN=C=S` (stereo not drawn) [Iberin], in experiment [1], the remaining activity at 1.25 µM is 95.3%. Further, in experiment [2], the remaining activity at 3.75 µM amounted to 90.7%.

Take `C[C@@H](NCCc1ccc(O)cc1)[C@@H](O)c1ccc(O)cc1` (racemic) [Ritodrine (hydrochloride)]: in experiment [1] (Well no.=6427, low concentration screen), the remaining activity at 1.25 µM came to 100%. Besides, the remaining activity at 3.75 µM in experiment [2] (Well no.=6427, high concentration screen) came out at 91.3%.
